Measurements published in ChEMBL document CHEMBL1201862, “PubChem BioAssay data set” (2004).
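Exposure lasted 48 hours, with cells grown in 96-well plates and compounds tested at five concentrations. GI50: concentration for 50% inhibition of growth.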 Activity calls are given as the source filed them. Rule as the data show it: active = GI50 up to about 1.1 µM and inactive = higher.

What was measured:
Assay in all cases: DTP human tumour cell line panel, 48 h
[1] = tested on: DLD-1
[2] = tested on: SNB-78
[3] = tested on: DMS-114
[4] = tested on: XF498
[5] = tested on: LXFL 529
[6] = tested on: RXF 631
[7] = tested on: DMS-273
[8] = tested on: HOP-18
[9] = tested on: KM-20L2

| Structure (SMILES) | GI50 [1] | GI50 [2] | GI50 [3] | GI50 [4] | GI50 [5] | GI50 [6] | GI50 [7] | GI50 [8] | GI50 [9] |
| --- | --- | --- | --- | --- | --- | --- | --- | --- | --- |
| CCc1nc2c(O)ccc(O)c2nc1C | 2.9 µM (inactive) | 27.8 µM (inactive) | 18.2 µM (inactive) | 24.2 µM (inactive) | 4.97 µM (inactive) | 19.1 µM (inactive) | 19.9 µM (inactive) | 20.9 µM (inactive) | 18.6 µM (inactive) |
| CC(C)(C)c1cc2c3c(c1)C(C(F)(F)F)(C(F)(F)F)O[Te]3(C)OC2(C(F)(F)F)C(F)(F)F | > 100 µM (inactive) | > 100 µM (inactive) | > 100 µM (inactive) | > 100 µM (inactive) | > 100 µM (inactive) | – | > 100 µM (inactive) | > 100 µM (inactive) | > 100 µM (inactive) |
| Cn1c(O)c(C(=O)NC2CCCCC2)c(=O)n(C)c1=S | 4.93 µM (inactive) | – | – | – | 2.78 µM (inactive) | 4.91 µM (inactive) | – | 3.6 µM (inactive) | 8.04 µM (inactive) |
| Nc1ccn(C2CCC(CO)O2)c(=O)n1 (stereo not given) | > 100 µM (inactive) | > 65.6 µM (inactive) | > 100 µM (inactive) | > 100 µM (inactive) | – | – | > 100 µM (inactive) | 98.9 µM (inactive) | > 100 µM (inactive) |
| Cc1ccc(C2(O)CC(c3ccc([N+](=O)[O-])o3)=NN2C(=O)COc2ccccc2Cl)cc1 (stereo not given) | 6.08 µM (inactive) | 42.6 µM (inactive) | 12.8 µM (inactive) | 16.9 µM (inactive) | 6.59 µM (inactive) | 6.87 µM (inactive) | 12.9 µM (inactive) | 20.6 µM (inactive) | 8.65 µM (inactive) |
| CC12OC3CC(O1)C1(C=O)C4CCC5(C)C(c6ccc(=O)oc6)CCC5(O)C4CCC1(C3)O2 (stereo not given) | 0.0995 µM (active) | 0.131 µM (active) | 0.0414 µM (active) | – | 0.139 µM (active) | – | 0.0519 µM (active) | 0.252 µM (active) | 0.298 µM (active) |
| CCOC(=O)C(=O)NNc1nc2c(s1)C(=O)c1ccccc1C2=O | 5.04 µM (inactive) | 2.54 µM (inactive) | 1.76 µM (inactive) | 2.09 µM (inactive) | 1.82 µM (inactive) | 11.2 µM (inactive) | 4.57 µM (inactive) | 2.24 µM (inactive) | 18.1 µM (inactive) |
| O=C1CC(c2c(-c3ccccc3)[nH]c3ccccc23)C(=O)N1 (stereo not given) | > 100 µM (inactive) | > 100 µM (inactive) | > 100 µM (inactive) | > 100 µM (inactive) | > 100 µM (inactive) | > 100 µM (inactive) | > 100 µM (inactive) | – | > 100 µM (inactive) |
| C#CCOCn1cnc2c(Sc3c([N+](=O)[O-])ncn3C)ncnc21 | > 100 µM (inactive) | – | > 100 µM (inactive) | > 100 µM (inactive) | 55.8 µM (inactive) | > 100 µM (inactive) | > 100 µM (inactive) | – | > 100 µM (inactive) |
| Fc1ccc(C2SCc3nc4ccccc4n32)c(F)c1 (stereo not given) | 67.6 µM (inactive) | 38.1 µM (inactive) | 31.8 µM (inactive) | – | – | 34.5 µM (inactive) | 38 µM (inactive) | > 100 µM (inactive) | > 100 µM (inactive) |
| CC1=C(/C=C/C(C)=C/C=C/C(C)=C/C(=O)O)C(C)(C)CCC1 [TRETINOIN] | > 100 µM (inactive) | – | > 100 µM (inactive) | > 100 µM (inactive) | > 100 µM (inactive) | – | > 100 µM (inactive) | > 100 µM (inactive) | > 100 µM (inactive) |
| Cc1ccc(S(=O)(=O)N2c3ccccc3[C@H]3CCC=C[C@H]32)cc1 | 13.3 µM (inactive) | 19.2 µM (inactive) | 3.12 µM (inactive) | 8.65 µM (inactive) | 9.55 µM (inactive) | 10.8 µM (inactive) | 3.66 µM (inactive) | 59.3 µM (inactive) | 3.18 µM (inactive) |
| CCOC(=O)CN.CCOC(=O)Nc1ccc(S(=O)(=O)OC)cc1.CCOC(=O)Nc1ccc(S(=O)(=O)OC)cc1 | > 50 µM (inactive) | > 50 µM (inactive) | > 50 µM (inactive) | – | > 50 µM (inactive) | > 50 µM (inactive) | > 50 µM (inactive) | > 50 µM (inactive) | > 50 µM (inactive) |
